According to paper PMC5666006, “Combating virulence of Gram-negative bacilli by OmpA inhibition” (Scientific Reports, 2017):
Where a SMILES comes first, the peptide text is derived from it. [ ]: non-standard residue; d: D form.

What was measured:
E. coli ATCC 25922 = format: cell-based
Protocol: (§1) In the initial screening, the bactericidal activity of the synthetic peptides and their toxicity on human lung epithelial cells (A549) were evaluated.
(§2) Table S1. MICs of the six hexapeptides for A. baumannii and E. coli.
(§3) Peptides P. aeruginosa PaO1
(§4) MIC: minimal inhibitory concentration

A. baumannii ATCC 17978 = format: cell-based
Protocol: as §1, §2, §3, §4

P. aeruginosa PaO1 = format: cell-based
Protocol: as §1, §2, §3, §4

[1] = Peptide toxicity, MTT assay; format: cell-based, human; details: human, A549 cells
Protocol: (§5) Human type II pneumocyte cell line A549 derived from a human lung carcinoma were obtained from American Type Culture Collection (LGC, UK) and were grown in DMEM medium (Invitrogen, Spain) supplemented with 10% heat-inactivated fetal bovine serum, vancomycin (50 μg/mL), gentamicin (20 μg/mL), amphotericin B (0.25 μg/mL) (Invitrogen, Spain) and 1% HEPES (Invitrogen, Spain) in a humidified incubator, 5% CO2 at 37 °C. A549 cells were routinely passaged every 3–4 days. The cells were seeded 24 h in 96-well plates for cellular viability assay, and in 24 well plates for adhesion and immnunofluorescence assays.
(§6) Peptide toxicity. […] Prior the evaluation of the peptides cytotoxicity, A549 cells were washed three times with prewarmed PBS. Then, peptides cytotoxicity was initially assessed quantitatively by monitoring the mitochondrial reduction activity using the MTT assay as described previously. The percentage of […] was calculated from the optical density (OD) as follow: [(OD of treated cells / mean OD of non-treated cell) × 100].
(§7) Table S2. Percentages of A549 cellular viability assessed through mitochondrial reduction
(§8) activity (MTT assay) in presence of anti-OmpA hexapeptides and control peptides (SXV4 and
(§9) COL). COL: colistin. ND: not determined.
(§10) Peptides 0.25 mg/mL 0.5 mg/mL 1 mg/mL 5 mg/mL

A549 cells = test: Peptide toxicity, MTT assay; format: cell-based, human; details: 48 h, MTT, mean ± SEM
Protocol: as §5, §6, §7, §8, §9, §10

With `N=C(N)NCCC[C@@H]1NC(=O)[C@H](Cc2c[nH]c3ccccc23)NC(=O)[C@H]2CCCN2C(=O)[C@H](CCCNC(=N)N)NC(=O)[C@H](Cc2c[nH]c3ccccc23)NC(=O)[C@H]2CCCN2C1=O` [AOA-1] (cyclo(R[dP]WR[dP]W)) the MIC (E. coli ATCC 25922) was > 500 µg/mL, the MIC (A. baumannii ATCC 17978) was > 500 µg/mL and the MIC (P. aeruginosa PaO1) was > 500 µg/mL. It also gave a viability at 48 h, 250 µg/mL [1] of 98.89 ± 0.41%, a viability at 48 h, 500 µg/mL [1] of 99.69 ± 0.26% and a viability at 48 h, 1000 µg/mL [1] of 99.7 ± 0.38%.

With `N=C(N)NCCC[C@@H]1NC(=O)[C@@H](Cc2c[nH]c3ccccc23)NC(=O)[C@@H]2CCCN2C(=O)[C@H](CCCNC(=N)N)NC(=O)[C@@H](Cc2c[nH]c3ccccc23)NC(=O)[C@@H]2CCCN2C1=O` [AOA-3] (cyclo(P[dW]RP[dW]R)) the MIC (E. coli ATCC 25922) was > 500 µg/mL, the MIC (A. baumannii ATCC 17978) was > 500 µg/mL and the MIC (P. aeruginosa PaO1) was > 500 µg/mL. It also gave a viability at 48 h, 250 µg/mL [1] of 99.27 ± 0.21%, a viability at 48 h, 500 µg/mL [1] of 99.7 ± 0.14% and a viability at 48 h, 1000 µg/mL [1] of 99.36 ± 0.3%.

For `N=C(N)NCCC[C@H]1NC(=O)[C@H](Cc2c[nH]c3ccccc23)NC(=O)[C@@H]2CCCN2C(=O)[C@@H](CCCNC(=N)N)NC(=O)[C@H](Cc2c[nH]c3ccccc23)NC(=O)[C@@H]2CCCN2C1=O` [AOA-4] (cyclo(PW[dR]PW[dR])), the MIC (E. coli ATCC 25922) was > 500 µg/mL, the MIC (A. baumannii ATCC 17978) was > 500 µg/mL and the MIC (P. aeruginosa PaO1) was > 500 µg/mL. For the same molecule, the viability at 48 h, 250 µg/mL [1] was 99.47 ± 0.39%, the viability at 48 h, 500 µg/mL [1] was 99.77 ± 0.17% and the viability at 48 h, 1000 µg/mL [1] was 100.1 ± 0.18%.

In the case of `O=C1N[C@@H](CO)C(=O)N2CCC[C@@H]2C(=O)N[C@@H](Cc2c[nH]c3ccccc23)C(=O)N[C@@H](CO)C(=O)N2CCC[C@@H]2C(=O)N[C@H]1Cc1c[nH]c2ccccc12` [AOA-5] (cyclo(S[dP]WS[dP]W)), the MIC (E. coli ATCC 25922) is reported as > 500 µg/mL, the MIC (A. baumannii ATCC 17978) is reported as > 500 µg/mL and the MIC (P. aeruginosa PaO1) is reported as > 500 µg/mL. For the same molecule, the viability at 48 h, 250 µg/mL [1] was 98.86 ± 0.08%, the viability at 48 h, 500 µg/mL [1] was 100 ± 0.39% and the viability at 48 h, 1000 µg/mL [1] was 100.1 ± 0.46%.

For `O=C(O)CC[C@@H]1NC(=O)[C@H](Cc2c[nH]c3ccccc23)NC(=O)[C@H]2CCCN2C(=O)[C@H](CCC(=O)O)NC(=O)[C@H](Cc2c[nH]c3ccccc23)NC(=O)[C@H]2CCCN2C1=O` [AOA-6] (cyclo(E[dP]WE[dP]W)), the MIC (E. coli ATCC 25922) was > 500 µg/mL, the MIC (A. baumannii ATCC 17978) was > 500 µg/mL and the MIC (P. aeruginosa PaO1) was > 500 µg/mL. It also gave a viability at 48 h, 250 µg/mL [1] of 98.31 ± 0.35%, a viability at 48 h, 500 µg/mL [1] of 99.14 ± 0.44% and a viability at 48 h, 1000 µg/mL [1] of 99.38 ± 0.34%.

In the case of `CC(=O)N[C@@H](Cc1c[nH]c2ccccc12)C(=O)N1CCC[C@@H]1C(=O)N[C@@H](CCCNC(=N)N)C(=O)N[C@@H](Cc1c[nH]c2ccccc12)C(=O)N1CCC[C@@H]1C(=O)N[C@@H](CCCNC(=N)N)C(=O)O` [SXV4] (Ac-W[dP]RW[dP]R-OH), the MIC (E. coli ATCC 25922) is reported as > 500 µg/mL, the MIC (A. baumannii ATCC 17978) is reported as > 500 µg/mL and the MIC (P. aeruginosa PaO1) is reported as > 500 µg/mL. It also gave a viability at 48 h, 250 µg/mL [1] of 98.17 ± 0.6%, a viability at 48 h, 500 µg/mL [1] of 98.79 ± 0.28% and a viability at 48 h, 1000 µg/mL [1] of 98.55 ± 0.21%.

For colistin [reference compound], the “Cellular viability (%)” value (A549 cells; A549, 0.5 mg/mL) was 91.85 ± 2.67%, the “Cellular viability (%)” value (A549 cells; A549, 1 mg/mL) was 68.39 ± 2.93% and the “Cellular viability (%)” value (A549 cells; A549, 5 mg/mL) was 9.88 ± 0.42%.
